Data on 24 molecules can be found in patent US6861260B2, “Lipid membrane, method for measuring membrane permeability, and method for screening” (Chugai Seiyaku Kabushiki Kaisha, priority 2000, dated 2005).

Where two headings read alike, the source gives them in different places. Marks after values point to notes of the source that are not given here.

A short description of data set [1]: Artificial lipid membrane permeability measurement (96-well filter plate, absorbance). The data set is classed as in vitro ADME. Also noted: Permeability coefficient (P), Example 2 / Permeability coefficient (P), Comparative Example 1: unit: cm/s. To be noted: 0.5 mmol/L sample; for Papp at 0.5 mmol/L: PAMPA; for Permeability coefficient (P), Comparative Example 1: membrane of Comparative Example 1 (phosphatidylcholine, cholesterol and 1,9-decadiene 2:1:97). A general note: PAMPA measures passive passage across an artificial lipid membrane.

For data set [2] the following is noted: literature data, References *1 to *4; cited from earlier work.
[3] abbreviates: membrane of Example 1 (phosphatidylcholine 2, cholesterol 1, stearic acid 0.2 %, w/w in 1,7-octadiene), pH 7.0, read-out: Permeability coefficient (P), Example 1.
The mark [4] stands for this setting: membrane of Example 2 (phosphatidylcholine 0.75, phosphatidylethanolamine 0.75, phosphatidylserine 0.25, phosphatidylinositol 0.25, cholesterol 1 %, w/w in 1,7-octadiene), pH 6.5.
Setting [5] is: membrane of Example 3 (phosphatidylcholine and 1,6-heptadiene 2:98), buffer pH 6.5 to pH 7.0, read-out: Permeability coefficient (P), Example 3.
Setting [6] is: membrane of Example 4 (phosphatidylcholine and 1,7-octadiene 2:98), buffer pH 6.5 to pH 7.0, read-out: Permeability coefficient (P), Example 4.
Where [7] appears, read: membrane of Example 5 (phosphatidylcholine and 1,8-nonadiene 2:98), buffer pH 6.5 to pH 7.0, read-out: Permeability coefficient (P), Example 5.
[8] abbreviates: membrane of Comparative Example 2 (phosphatidylcholine and 1,9-decadiene 2:98), buffer pH 6.5 to pH 7.0, read-out: Permeability coefficient (P), Comparative Example 2.
[9] abbreviates: membrane of Example 2 (phosphatidylcholine 0.75, phosphatidylethanolamine 0.75, phosphatidylserine 0.25, phosphatidylinositol 0.25, cholesterol 1 %, w/w in 1,7-octadiene), pH 6.5, read-out: Permeability coefficient (P), Example 2.

With `CCN1CCCC1CNC(=O)c1cc(S(N)(=O)=O)ccc1OC` (stereo not shown) [Sulpiride], in data set [1] (setting [3]), the Papp at 0.5 mmol/L worked out at 1.34 ×10⁻⁶ cm/s. Besides, the “Permeability coefficient (P), Comparative Example 1” value in data set [1] (pH 6.5) amounted to 8.33E-08. Moreover, the “Permeability coefficient (P), Example 2” value in data set [1] (setting [4]) was 2.23E-06.

As to `NS(=O)(=O)c1cc2c(cc1Cl)N=CNS2(=O)=O` [Chlorothiazide], the Papp at 0.5 mmol/L in data set [1] (setting [3]) was 2.24 ×10⁻⁶ cm/s. Moreover, in data set [1] (pH 6.5), the “Permeability coefficient (P), Comparative Example 1” value is on record as 4.98E-08. Further, in data set [1] (setting [4]), the “Permeability coefficient (P), Example 2” value stood at 2.71E-07.

Take `CO/N=C(\C(=O)N[C@@H]1C(=O)N2C(C(=O)O)=C(CSc3nc(=O)c(=O)[nH]n3C)CS[C@H]12)c1csc(N)n1` [Ceftriaxone]: the Papp at 0.5 mmol/L in data set [1] (setting [3]) came out at 1.37 ×10⁻⁶ cm/s. Moreover, the “Permeability coefficient (P), Comparative Example 1” value in data set [1] (pH 6.5) came out at 1.66E-08. Moreover, in data set [1] (setting [4]), the “Permeability coefficient (P), Example 2” value worked out at 2.25E-07. Besides, the “Human intestinal absorption (Fa, %)” value in data set [2] was 1*^4%.

Consider `CC(C)(C)NC[C@H](O)COc1nsnc1N1CCOCC1` [Timolol], for which the Papp at 0.5 mmol/L in data set [1] (setting [3]) came out at 9.13 ×10⁻⁶ cm/s. The “Permeability coefficient (P), Comparative Example 1” value in data set [1] (pH 6.5) was found to be 1.05E-06. Further, the “Permeability coefficient (P), Example 2” value in data set [1] (setting [4]) is 1.19E-05. In data set [2], the “Human intestinal absorption (Fa, %)” value is recorded as 90*^1%.

For `N=C(N)NC(=O)c1nc(Cl)c(N)nc1N` [Amiloride], in data set [1] (setting [3]), the Papp at 0.5 mmol/L amounted to 2.69 ×10⁻⁶ cm/s. Moreover, the “Permeability coefficient (P), Comparative Example 1” value in data set [1] (pH 6.5) worked out at 6.10E-08. The “Permeability coefficient (P), Example 2” value in data set [1] (setting [4]) is 6.73E-07. Besides, the “Human intestinal absorption (Fa, %)” value in data set [2] is 50*^3%.

With `CN(C)[C@@H]1C(O)=C(C(N)=O)C(=O)[C@@]2(O)C(O)=C3C(=O)c4c(O)cccc4[C@@](C)(O)[C@H]3[C@H](O)[C@@H]12` [Oxytetracycline], the Papp at 0.5 mmol/L in data set [1] (setting [3]) came out at 3.31 ×10⁻⁶ cm/s. In addition, the “Permeability coefficient (P), Comparative Example 1” value in data set [1] (pH 6.5) amounted to 8.31E-07. Moreover, in data set [1] (setting [4]), the “Permeability coefficient (P), Example 2” value is on record as 5.87E-06. Besides, the “Human intestinal absorption (Fa, %)” value in data set [2] was 60*^3%.

For the molecule `NS(=O)(=O)c1cc2c(cc1Cl)NCNS2(=O)=O` [Hydrochlorothiazide], the Papp at 0.5 mmol/L in data set [1] (setting [5]) is 5.86 ×10⁻⁶ cm/s; in data set [1] (setting [6]), 1.52 ×10⁻⁶ cm/s; in data set [1] (setting [7]), 1.82 ×10⁻⁶ cm/s; in data set [1] (setting [8]), 0.751 ×10⁻⁶ cm/s; in data set [1] (setting [3]) it was 1.34 ×10⁻⁶ cm/s; in data set [1] (setting [9]), 1.55 ×10⁻⁶ cm/s. Further, the “Permeability coefficient (P), Comparative Example 1” value in data set [1] (pH 6.5) is 8.64E-07.

With `CC(=O)Nc1ccc(OCC(O)CNC(C)C)cc1` (stereo not shown) [Practolol], in data set [1] (setting [3]), the Papp at 0.5 mmol/L was 1.01 ×10⁻⁶ cm/s. For the same molecule, the “Permeability coefficient (P), Comparative Example 1” value in data set [1] (pH 6.5) stood at 4.36E-07. The “Permeability coefficient (P), Example 2” value in data set [1] (setting [4]) was 1.53E-06.

Turning to `O=C1CC[C@@]2(O)[C@H]3Cc4ccc(O)c5c4[C@@]2(CCN3CC2CC2)[C@H]1O5` [Naltrexone], in data set [1] (setting [3]), the Papp at 0.5 mmol/L is 11.2 ×10⁻⁶ cm/s. The “Permeability coefficient (P), Comparative Example 1” value in data set [1] (pH 6.5) amounted to 9.61E-06. For the same molecule, in data set [1] (setting [4]), the “Permeability coefficient (P), Example 2” value stood at 4.50E-06.

Regarding `CC(C)(C)NCC(O)COc1cccc2c1CC(O)C(O)C2` (stereo not shown) [Nadolol], the Papp at 0.5 mmol/L in data set [1] (setting [3]) was determined as 3.28 ×10⁻⁶ cm/s. The “Permeability coefficient (P), Comparative Example 1” value in data set [1] (pH 6.5) is 5.26E-07. In data set [2], the “Human intestinal absorption (Fa, %)” value is listed as 35*^1%.

As for `COCCc1ccc(OCC(O)CNC(C)C)cc1` (stereo not shown) [Metoprolol], the Papp at 0.5 mmol/L in data set [1] (setting [3]) was found to be 9.42 ×10⁻⁶ cm/s. Also, the “Permeability coefficient (P), Comparative Example 1” value in data set [1] (pH 6.5) turned out to be 7.49E-07. Besides, in data set [1] (setting [4]), the “Permeability coefficient (P), Example 2” value is reported as 6.88E-06.

As to `CC(C)NCC(O)COc1cccc2ccccc12` (stereo not shown) [Propranolol], the Papp at 0.5 mmol/L in data set [1] (setting [5]) came out at 43.8 ×10⁻⁶ cm/s; in data set [1] (setting [6]), 21.5 ×10⁻⁶ cm/s; in data set [1] (setting [7]), 24.6 ×10⁻⁶ cm/s; in data set [1] (setting [8]), 12.5 ×10⁻⁶ cm/s.

As to `CC(C)NCC(O)COc1cccc2[nH]ccc12` (stereo not shown) [Pindolol], in data set [1] (setting [3]), the Papp at 0.5 mmol/L is 11 ×10⁻⁶ cm/s. For the same molecule, the “Permeability coefficient (P), Comparative Example 1” value in data set [1] (pH 6.5) is on record as 2.71E-08. For the same molecule, the “Permeability coefficient (P), Example 2” value in data set [1] (setting [4]) is reported as 7.94E-06. In addition, the “Human intestinal absorption (Fa, %)” value in data set [2] is given as 90*^1%.

With `CC[C@H](C)C(=O)O[C@H]1C[C@H](O)C=C2C=C[C@H](C)[C@H](CC[C@@H](O)C[C@@H](O)CC(=O)O)[C@H]21` [Pravastatin], the Papp at 0.5 mmol/L in data set [1] (setting [3]) stood at 2.69 ×10⁻⁶ cm/s. Besides, the “Permeability coefficient (P), Comparative Example 1” value in data set [1] (pH 6.5) came to 7.21E-08. Besides, the “Permeability coefficient (P), Example 2” value in data set [1] (setting [4]) is reported as 6.12E-07. In data set [2], the “Human intestinal absorption (Fa, %)” value is given as 34*^1%.

Consider `Nc1ccn([C@@H]2O[C@H](CO)[C@@H](O)[C@@H]2O)c(=O)n1` [Cytarabine], for which the results for the Papp at 0.5 mmol/L in data set [1] (setting [3]) and in data set [1] (setting [9]) were 0.889 ×10⁻⁶ cm/s and 0.0387 ×10⁻⁶ cm/s, respectively. The “Permeability coefficient (P), Comparative Example 1” value in data set [1] (pH 6.5) turned out to be 3.87E-08.

Take `CC(C(=O)O)c1cccc(C(=O)c2ccccc2)c1` (stereo not shown) [Ketoprofen]: the Papp at 0.5 mmol/L in data set [1] (setting [5]) amounted to 50.5 ×10⁻⁶ cm/s; in data set [1] (setting [6]), 13.6 ×10⁻⁶ cm/s; in data set [1] (setting [7]), 16.8 ×10⁻⁶ cm/s; in data set [1] (setting [8]), 9.22 ×10⁻⁶ cm/s.

Regarding `N=C(N)N/N=C/c1c(Cl)cccc1Cl` [Guanabenz], the Papp at 0.5 mmol/L in data set [1] (setting [3]) was 19.5 ×10⁻⁶ cm/s. Also, in data set [1] (pH 6.5), the “Permeability coefficient (P), Comparative Example 1” value was 4.14E-06. Further, the “Permeability coefficient (P), Example 2” value in data set [1] (setting [4]) is listed as 1.04E-05. In addition, the “Human intestinal absorption (Fa, %)” value in data set [2] is 75*^1%.

Consider `CCOC(=O)[C@H](CCc1ccccc1)N[C@@H](C)C(=O)N1CCC[C@H]1C(=O)O` [Enalapril], for which the Papp at 0.5 mmol/L in data set [1] (setting [3]) turned out to be 0.802 ×10⁻⁶ cm/s; in data set [1] (setting [9]), 1.37 ×10⁻⁶ cm/s. The “Permeability coefficient (P), Comparative Example 1” value in data set [1] (pH 6.5) came out at 1.09E-06. For the same molecule, in data set [2], the “Human intestinal absorption (Fa, %)” value is 65*^3%.

With `CNC(=C[N+](=O)[O-])NCCSCc1ccc(CN(C)C)o1` [Ranitidine], the Papp at 0.5 mmol/L in data set [1] (setting [3]) came to 1.22 ×10⁻⁶ cm/s. For the same molecule, the “Permeability coefficient (P), Comparative Example 1” value in data set [1] (pH 6.5) stood at 1.34E-07. Moreover, the “Permeability coefficient (P), Example 2” value in data set [1] (setting [4]) turned out to be 2.19E-06.

Consider `CC(=O)Nc1ccc(O)cc1` [Acetaminophen], for which the Papp at 0.5 mmol/L in data set [1] (setting [3]) was determined as 8.17 ×10⁻⁶ cm/s. For the same molecule, in data set [1] (pH 6.5), the “Permeability coefficient (P), Comparative Example 1” value worked out at 4.98E-08. In addition, the “Permeability coefficient (P), Example 2” value in data set [1] (setting [4]) was found to be 1.79E-06. Moreover, the “Human intestinal absorption (Fa, %)” value in data set [2] is recorded as 80*^1%.

In the case of `C[C@H]1c2cccc(O)c2C(=O)C2=C(O)[C@]3(O)C(=O)C(C(N)=O)=C(O)[C@@H](N(C)C)[C@@H]3[C@@H](O)[C@@H]21` [Doxycycline], the Papp at 0.5 mmol/L in data set [1] (setting [3]) was 7.07 ×10⁻⁶ cm/s. In addition, the “Permeability coefficient (P), Comparative Example 1” value in data set [1] (pH 6.5) is 1.52E-06. Further, the “Permeability coefficient (P), Example 2” value in data set [1] (setting [4]) was 2.35E-05. The “Human intestinal absorption (Fa, %)” value in data set [2] is recorded as 95*^3%.

For the molecule `O=C(O)c1cc(/N=N/c2ccc(S(=O)(=O)Nc3ccccn3)cc2)ccc1O` [Sulfasalazine], the Papp at 0.5 mmol/L in data set [1] (setting [3]) amounted to 3.24 ×10⁻⁶ cm/s. Moreover, the “Permeability coefficient (P), Comparative Example 1” value in data set [1] (pH 6.5) is 3.12E-07. In data set [1] (setting [4]), the “Permeability coefficient (P), Example 2” value is given as 1.07E-06. In addition, the “Human intestinal absorption (Fa, %)” value in data set [2] is 65*^1%.

`CO/N=C(\C(=O)N[C@@H]1C(=O)N2C(C(=O)O)=C(COC(N)=O)CS[C@H]12)c1ccco1` [Cefuroxime]: the figures for the Papp at 0.5 mmol/L in data set [1] (setting [3]) and in data set [1] (setting [9]) were 0.16 ×10⁻⁶ cm/s and 0.0443 ×10⁻⁶ cm/s, respectively. Also, the “Permeability coefficient (P), Comparative Example 1” value in data set [1] (pH 6.5) is 2.76E-08. For the same molecule, the “Human intestinal absorption (Fa, %)” value in data set [2] is listed as 5*^1%.

In the case of `CCCC(=O)Nc1ccc(OCC(O)CNC(C)C)c(C(C)=O)c1` (stereo not shown) [Acebutolol], the Papp at 0.5 mmol/L in data set [1] (setting [3]) was 4.45 ×10⁻⁶ cm/s. In addition, the “Permeability coefficient (P), Comparative Example 1” value in data set [1] (pH 6.5) worked out at 1.91E-07. In data set [1] (setting [4]), the “Permeability coefficient (P), Example 2” value is listed as 3.67E-06. Moreover, the “Human intestinal absorption (Fa, %)” value in data set [2] is recorded as 90*^1%.
